Reference: patent US20030232986A1, “Inhibitors of caspases” (Vertex Pharmaceuticals Incorporated, priority 1998, published 2003)
pIC50, pKi: −log10 of the molar value.

Experiments:
[1] = system: Human whole blood, IL-1β production; test: Whole blood assay for IL-1β production; assay type: cell-based; details: LPS-stimulated whole blood, IL-1β by ELISA
Procedure: The whole blood assay is a simple method for measuring the production of IL-1β (or other cytokines) and the activity of potential inhibitors. The complexity of this assay system, with its full complement of lymphoid and inflammatory cell types, spectrum of plasma proteins and red blood cells is an ideal in vitro representation of human in vivo physiologic conditions.
Set incubator or water bath at 30° C. Aliquot 0.25 ml of blood into 1.5 ml eppendorf tubes. Note: be sure to invert the whole blood sample tubes after every two aliquots. Differences in replicates may result if the cells sediment and are not uniformly suspended. Use of a positive displacement pipette will also minimize differences between replicate aliquots.
Prepare drug dilutions in sterile pyrogen-free saline by serial dilution. A dilution series which brackets the apparent Ki for a test compound determined in an ICE inhibition assay is generally used for the primary compound screen. For extremely hydrophobic compounds, prepare compound dilutions in fresh plasma obtained from the same blood donor or in PBS-containing 5% DMSO to enhance solubility.
Add 25 μl test compound dilution or vehicle control and gently mix the sample. Then add 5.0 μl LPS solution (250 ng/ml stocked prepared fresh: 5.0 ng/ml final concentration LPS), and mix again. Incubate the tubes at […] in a water bath for 16-18 hr with occasional mixing. Alternatively, the tubes can be placed in a rotator set at 4 rpm for the same incubation period. This assay should be set up in duplicate or triplicate with the following controls: negative control—no LPS; positive control—no test inhibitor; vehicle control—the highest concentration of DMSO or compound solvent used in the experiment. Additional saline is added to all control tubes to normalize volumes for both control and experimental whole blood test samples.
After the incubation period, whole blood samples are centrifuged for 10 minutes at ^˜2000 rpm in the microfuge, plasma is transferred to a fresh microfuge tube and centrifuged at 1000×g to pellet residual platelets if necessary. Plasma samples may be stored frozen at −70° C. prior to assay for cytokine levels by ELISA.
R & D Systems (614 McKinley Place N.E. Minneapolis, Minn. 55413) Quantikine kits may be used for measurement of IL-1β and TNF-α. The assays are performed according to the manufacture's directions. IL-1β levels of ^˜1-5 ng/ml in positive controls among a range of individuals may be observed. A 1:200 dilution of plasma for all samples is usually sufficient for experiments for ELISA results to fall on the linear range of the ELISA standard curves. It may be necessary to optimize standard dilutions if you observe differences in the whole blood assay. Nerad, J. L. et al., J. Leukocyte Biol., 52, pp. 687-692 (1992).

Caspase-1 = biological target: T1, Caspase-1 (Homo sapiens, UniProt P29466); test: Caspase-1 enzyme inhibition (Ki); assay type: biochemical; details: substrate Suc-YVAD-pNA 80 μM, 37° C., pH 7.5
T1 sequence (P29466 120-297 limits assumed): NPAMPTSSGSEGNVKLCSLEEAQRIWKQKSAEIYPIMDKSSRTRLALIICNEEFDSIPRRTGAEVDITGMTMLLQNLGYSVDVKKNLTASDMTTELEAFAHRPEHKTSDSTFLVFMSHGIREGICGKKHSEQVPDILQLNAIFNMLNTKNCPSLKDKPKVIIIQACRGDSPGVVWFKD
T1 sequence (P29466 317-404 limits assumed): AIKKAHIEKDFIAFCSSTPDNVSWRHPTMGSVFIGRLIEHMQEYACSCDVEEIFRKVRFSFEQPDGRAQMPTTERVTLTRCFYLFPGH
Procedure: Ki values for test compounds with the various caspases were obtained by the method of Margolin et al. (J. Biol. Chem., 272 pp. 7223-7228 (1997)). Assays were performed in 10 mM Tris (Sigma Corp, St Louis Mo.) pH 7.5, 1 mM Dithiothreitol (DTT, Research Organic INC, Cleveland, Ohio) and 0.1% CHAPS (Pierce, Rockford Ill.) at 37° C. For caspase-3, a solution of 8% glycerol was added to the assay buffer to improve enzyme stability. A 65 μL aliquot of the assay buffer and 5 μL aliquot of the appropriate dilutions of inhibitor in DMSO where pipetted into a 96 well plate, treated with 10 μL of caspase, then diluted in assay buffer (0.5-40 nM active protein by active site titration). A control containing DMSO but no compound was included for each determination. The plates were then incubated for 15 minutes at 37° C., before addition of the appropriate substrate (20 μL, final concentration 1-4×KM, final assay volume 100 μL) to initiate the reaction. Reaction rates were measured at 37° C. either by following the time dependant increase in absorbance at 405 nm (for the pNA substrates) or in fluorescence (Ex 390, Em 460) (for the AMC substrates). The rates obtained were plotted against inhibitor concentration and the data fit to the Morrison tight-binding equation for competitive inhibitors (Morrison, J. F., Biochem. Biophys. Acta, 185 pp. 269-286 (1969)). The substrates used for the individual assays were as follows:
Caspase-1 Suc-YVAD-pNA (Bachem, King of Prussia, Pa.) (final concentration in the assay 80 μM),

pIC50 [1] | pKi (Caspase-1) | SMILES
5.12 to 5.60 | > 8.00 | CNc1ccc(C(=O)N[C@@H](C)C(=O)N2CCC[C@H]2C(=O)N[C@H](C=O)CC(=O)O)cc1Cl [Example 7aa]
5.12 to 5.60 | 6.00 to 8.00 | C[C@H](NC(=O)c1cccc(C#N)c1)C(=O)N1CCC[C@H]1C(=O)N[C@H](C=O)CC(=O)O [Example 7ad]
5.12 to 5.60 | > 8.00 | C[C@H](NC(=O)c1cccc(Cl)c1)C(=O)N1CCC[C@H]1C(=O)N[C@H](C=O)CC(=O)O [Example 7ah]
5.12 to 5.60 | > 8.00 | C[C@H](NC(=O)c1cc(Cl)cc(Cl)c1)C(=O)N1CCC[C@H]1C(=O)N[C@H](C=O)CC(=O)O [Example 7ai]
< 5.12 | > 8.00 | C[C@H](NC(=O)c1ccc(Cl)c(Cl)c1)C(=O)N1CCC[C@H]1C(=O)N[C@H](C=O)CC(=O)O [Example 7aj]
5.12 to 5.60 | > 8.00 | C[C@H](NC(=O)c1ccc(F)c(Cl)c1)C(=O)N1CCC[C@H]1C(=O)N[C@H](C=O)CC(=O)O [Example 7ak]
5.12 to 5.60 | > 8.00 | C[C@H](NC(=O)c1cccc(C(F)(F)F)c1)C(=O)N1CCC[C@H]1C(=O)N[C@H](C=O)CC(=O)O [Example 7am]
5.12 to 5.60 | > 8.00 | Cc1ccc(Cl)cc1C(=O)N[C@@H](C)C(=O)N1CCC[C@H]1C(=O)N[C@H](C=O)CC(=O)O [Example 7an]
5.12 to 5.60 | 6.00 to 8.00 | Cc1c(Cl)cccc1C(=O)N[C@@H](C)C(=O)N1CCC[C@H]1C(=O)N[C@H](C=O)CC(=O)O [Example 7ao]
< 5.12 | 6.00 to 8.00 | C[C@H](NC(=O)C(=O)c1ccccc1)C(=O)N1CCC[C@H]1C(=O)N[C@H](C=O)CC(=O)O [Example 7ap]
> 5.60 | > 8.00 | CC(C)[C@H](NC(=O)c1ccc(N)c(Cl)c1)C(=O)N1CC(F)(F)C[C@H]1C(=O)N[C@H](C=O)CC(=O)O [Example 27d]
> 5.60 | 6.00 to 8.00 | CC[C@H](NC(=O)c1ccc(N)c(Cl)c1)C(=O)N1CC(F)(F)C[C@H]1C(=O)N[C@H](C=O)CC(=O)O [Example 27e]
5.12 to 5.60 | 6.00 to 8.00 | C[C@H](NC(=O)c1cccc2ccccc12)C(=O)N1CC(F)(F)C[C@H]1C(=O)N[C@H](C=O)CC(=O)O [Example 27f]
5.12 to 5.60 | > 8.00 | C[C@H](NC(=O)c1cc(Cl)c(O)c(Cl)c1)C(=O)N1CC(F)(F)C[C@H]1C(=O)N[C@H](C=O)CC(=O)O [Example 27g]
5.12 to 5.60 | 6.00 to 8.00 | COc1c(Cl)cc(C(=O)N[C@@H](C)C(=O)N2CC(F)(F)C[C@H]2C(=O)N[C@H](C=O)CC(=O)O)cc1Cl [Example 27h]
5.12 to 5.60 | 6.00 to 8.00 | COc1c(C)cc(C(=O)N[C@@H](C)C(=O)N2CC(F)(F)C[C@H]2C(=O)N[C@H](C=O)CC(=O)O)cc1C [Example 27i]
5.12 to 5.60 | 6.00 to 8.00 | C[C@H](NC(=O)c1nccc2ccccc12)C(=O)N1CC(F)(F)C[C@H]1C(=O)N[C@H](C=O)CC(=O)O [Example 27l]
5.12 to 5.60 | 6.00 to 8.00 | C[C@H](NC(=O)c1cccc(C(F)(F)F)c1)C(=O)N1CC(F)(F)C[C@H]1C(=O)N[C@H](C=O)CC(=O)O [Example 27m]
> 5.60 | 6.00 to 8.00 | C[C@H](NC(=O)c1ccc2[nH]cnc2c1)C(=O)N1CC(F)(F)C[C@H]1C(=O)N[C@H](C=O)CC(=O)O [Example 27n]
> 5.60 | 6.00 to 8.00 | COc1ccc(C(=O)N[C@@H](C)C(=O)N[C@@H](C)C(=O)N[C@H](C=O)CC(=O)O)cc1 [Example 29s]
5.12 to 5.60 | 6.00 to 8.00 | C[C@H](NC(=O)c1ccc(N(C)C)c(Cl)c1)C(=O)N1CCC[C@H]1C(=O)N[C@H](C=O)CC(=O)O [Example 122m, 3-({1-[2-(3-Chloro-4-dimethylamino-benzoylamino)-propionyl]-pyrrolidine-2-carbonyl}-amino)-4-oxo-butyric acid]
5.12 to 5.60 | > 8.00 | C[C@H](NC(=O)c1c(F)c(F)c(N)c(F)c1F)C(=O)N1CCC[C@H]1C(=O)N[C@H](C=O)CC(=O)O [Example 122p, 3-({1-[2-(4-Amino-2,3,5,6-tetrafluoro-benzoylamino)-propionyl]-pyrrolidine-2-carbonyl}-amino)-4-oxo-butyric acid]
5.12 to 5.60 | 6.00 to 8.00 | C[C@H](NC(=O)c1ccc2ncccc2c1)C(=O)N1CCC[C@H]1C(=O)N[C@H](C=O)CC(=O)O [Example 122q, 4-Oxo-3-[(1-{2-[(quinoline-6-carbonyl)-amino]-propionyl}-pyrrolidine-2-carbonyl)-amino]-butyric acid]
5.12 to 5.60 | 6.00 to 8.00 | C[C@H](NC(=O)c1ccc(NC(=O)C(C)(C)C)c(Cl)c1)C(=O)N1CCC[C@H]1C(=O)N[C@H](C=O)CC(=O)O [Example 122s, 3-[(1-{2-[3-Chloro-4-(2,2-dimethyl-propionylamino)-benzoylamino]-propionyl}-pyrrolidine-2-carbonyl)-amino]-4-oxo-butyric acid]
> 5.60 | 6.00 to 8.00 | CC(NC(=O)c1ccc(N)c(Cl)c1)C(=O)N1CC(F)CC1C(=O)NC(C=O)CC(=O)O (stereo not drawn) [Example 123a, 3-({1-[2-(4-Amino-3-chloro-benzoylamino)-propionyl]-4-fluoro-pyrrolidine-2-carbonyl}-amino)-4-oxo-butyric acid]
5.12 to 5.60 | 6.00 to 8.00 | CC(=O)Nc1ccc(C(=O)NC(C)C(=O)N2CC(F)(F)CC2C(=O)NC(C=O)CC(=O)O)cc1Cl (stereo not drawn) [Example 123b, 3-({1-[2-(4-Acetylamino-3-chloro-benzoylamino)-propionyl]-4,4-difluoro-pyrrolidine-2-carbonyl}-amino)-4-oxo-butyric acid]
5.12 to 5.60 | 6.00 to 8.00 | Nc1ccc(C(=O)NCC(=O)N2CC(F)(F)C[C@H]2C(=O)N[C@H](C=O)CC(=O)O)cc1Cl [Example G2, 3-({1-[(4-Amino-3-chloro-benzoylamino)-acetyl]-4,4-difluoro-pyrrolidine-2-carbonyl}-amino)-4-oxo-butyric acid]
